{"source": "patent EP0308568A1", "about": "“Diacyl derivatives of 4-(trialkylbenzyl)-piperazinyl compounds” (CIBA-GEIGY AG, priority 1987, dated 1989)", "key": {"[1]": {"tested_on": "\"very low density\"-, \"low-density\"- bzw. \"high density\"-Lipoproteinen (VLDL, LDL bzw. HDL) im Serum", "assay": "Lipid-lowering effect in rats: serum lipoproteins after oral dosing (arrangement A: genetically hypercholesterolaemic male rats; arrangement B: normolipaemic rats)", "type": "in vivo, Ratten", "settings": "repeated administration of 30 mg/kg daily", "from_the_text": "Die Diacyl-Verbindungen der vorliegenden Erfindung dagegen weisen, wenn überhaupt, eine nur marginale antibiotische Wirkung auf. Ueberraschenderweise besitzen sie jedoch eine lipidsenkende Wirkung, die in Tierversuchen, vorzugsweise an Säugetieren, z.B. an Ratten, nachgewiesen werden kann. So kann die Senkung von \"very low density\"-, \"low-density\"- bzw. \"high density\"-Lipoproteinen (VLDL, LDL bzw. HDL) im Serum in zwei Testanordnungen, und zwar in genetisch hypercholesterolämischen männlichen Ratten (Anordnung A) und normolipämischen Ratten beiden Geschlechts (Anordnung B) gezeigt werden.\nAlbino-Ratten mit einem Körpergewicht von 180-240 g, die freien Zugang zu Standard-Rattenfutter und Trinkwasser haben, werden verwendet, und zwar in Anordnung A Sprague Dawley Abkömmlinge des Stammes Tif:RAI und in Anordnung B Tiere des Wistar-Stammes IVa-WI. Die Testverbindung wird in einer Polyethylenglykollösung (mittleres Molekulargewicht von 400) oral an Gruppen von 8 bis 10 Ratten verabreicht, in der Anordnung A einmal täglich um 8 Uhr vormittags während drei aufeinanderfolgenden Tagen und zweimal, um 8 Uhr und 16 Uhr, am vierten Tag, oder im Falle der Anordnung B täglich während 5 aufeinanderfolgenden Tagen. Im Experiment A werden die Tiere 16 Stunden und im Experiment B zwei Stunden nach der letzten Gabe durch Ausblutenlassen vom Hals unter Anästhesie mit Ether getötet. […]"}, "[2]": {"target": "RNA-Polymerase von Escherichia coli (Escherichia coli, UniProt P0A8V2)", "sequence (P0A800 whole entry)": "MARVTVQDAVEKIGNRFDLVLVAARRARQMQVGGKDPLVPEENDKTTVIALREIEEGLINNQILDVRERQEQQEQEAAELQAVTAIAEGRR", "sequence (P0A8T7 whole entry, further chain)": "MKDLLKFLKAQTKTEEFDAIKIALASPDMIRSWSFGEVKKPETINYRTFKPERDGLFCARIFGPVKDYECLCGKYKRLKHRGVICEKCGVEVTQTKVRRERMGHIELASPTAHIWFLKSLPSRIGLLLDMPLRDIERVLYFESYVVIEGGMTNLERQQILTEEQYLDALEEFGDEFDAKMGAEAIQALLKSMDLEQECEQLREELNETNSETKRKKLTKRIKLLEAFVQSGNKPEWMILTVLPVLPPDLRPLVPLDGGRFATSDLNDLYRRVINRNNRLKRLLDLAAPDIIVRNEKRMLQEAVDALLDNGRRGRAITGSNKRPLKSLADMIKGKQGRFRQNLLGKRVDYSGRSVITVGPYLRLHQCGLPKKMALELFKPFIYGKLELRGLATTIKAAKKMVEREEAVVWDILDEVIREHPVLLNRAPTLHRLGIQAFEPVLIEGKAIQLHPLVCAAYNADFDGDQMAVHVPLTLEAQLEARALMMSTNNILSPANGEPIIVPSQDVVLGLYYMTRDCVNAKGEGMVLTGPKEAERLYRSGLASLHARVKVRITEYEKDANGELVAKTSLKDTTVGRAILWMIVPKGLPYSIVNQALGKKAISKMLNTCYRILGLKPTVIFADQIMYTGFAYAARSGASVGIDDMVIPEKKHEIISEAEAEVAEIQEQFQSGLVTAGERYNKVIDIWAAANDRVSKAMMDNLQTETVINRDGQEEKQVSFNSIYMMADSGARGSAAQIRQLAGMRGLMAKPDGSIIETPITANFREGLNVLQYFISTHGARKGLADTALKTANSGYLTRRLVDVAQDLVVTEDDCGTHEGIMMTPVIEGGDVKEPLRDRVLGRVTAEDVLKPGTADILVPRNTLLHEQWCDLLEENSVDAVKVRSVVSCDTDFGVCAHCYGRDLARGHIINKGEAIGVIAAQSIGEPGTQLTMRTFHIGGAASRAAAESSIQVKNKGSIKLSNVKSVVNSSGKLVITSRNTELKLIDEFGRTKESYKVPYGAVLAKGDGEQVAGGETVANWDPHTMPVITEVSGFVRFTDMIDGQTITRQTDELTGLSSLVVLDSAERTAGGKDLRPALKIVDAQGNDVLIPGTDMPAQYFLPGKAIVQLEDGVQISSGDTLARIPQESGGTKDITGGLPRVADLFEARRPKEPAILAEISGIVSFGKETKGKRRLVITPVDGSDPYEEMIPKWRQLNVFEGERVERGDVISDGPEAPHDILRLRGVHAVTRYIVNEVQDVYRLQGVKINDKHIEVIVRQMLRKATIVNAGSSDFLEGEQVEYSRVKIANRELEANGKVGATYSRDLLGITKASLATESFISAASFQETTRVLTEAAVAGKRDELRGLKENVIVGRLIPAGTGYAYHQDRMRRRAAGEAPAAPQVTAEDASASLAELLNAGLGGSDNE", "sequence (P0A8V2 whole entry)": "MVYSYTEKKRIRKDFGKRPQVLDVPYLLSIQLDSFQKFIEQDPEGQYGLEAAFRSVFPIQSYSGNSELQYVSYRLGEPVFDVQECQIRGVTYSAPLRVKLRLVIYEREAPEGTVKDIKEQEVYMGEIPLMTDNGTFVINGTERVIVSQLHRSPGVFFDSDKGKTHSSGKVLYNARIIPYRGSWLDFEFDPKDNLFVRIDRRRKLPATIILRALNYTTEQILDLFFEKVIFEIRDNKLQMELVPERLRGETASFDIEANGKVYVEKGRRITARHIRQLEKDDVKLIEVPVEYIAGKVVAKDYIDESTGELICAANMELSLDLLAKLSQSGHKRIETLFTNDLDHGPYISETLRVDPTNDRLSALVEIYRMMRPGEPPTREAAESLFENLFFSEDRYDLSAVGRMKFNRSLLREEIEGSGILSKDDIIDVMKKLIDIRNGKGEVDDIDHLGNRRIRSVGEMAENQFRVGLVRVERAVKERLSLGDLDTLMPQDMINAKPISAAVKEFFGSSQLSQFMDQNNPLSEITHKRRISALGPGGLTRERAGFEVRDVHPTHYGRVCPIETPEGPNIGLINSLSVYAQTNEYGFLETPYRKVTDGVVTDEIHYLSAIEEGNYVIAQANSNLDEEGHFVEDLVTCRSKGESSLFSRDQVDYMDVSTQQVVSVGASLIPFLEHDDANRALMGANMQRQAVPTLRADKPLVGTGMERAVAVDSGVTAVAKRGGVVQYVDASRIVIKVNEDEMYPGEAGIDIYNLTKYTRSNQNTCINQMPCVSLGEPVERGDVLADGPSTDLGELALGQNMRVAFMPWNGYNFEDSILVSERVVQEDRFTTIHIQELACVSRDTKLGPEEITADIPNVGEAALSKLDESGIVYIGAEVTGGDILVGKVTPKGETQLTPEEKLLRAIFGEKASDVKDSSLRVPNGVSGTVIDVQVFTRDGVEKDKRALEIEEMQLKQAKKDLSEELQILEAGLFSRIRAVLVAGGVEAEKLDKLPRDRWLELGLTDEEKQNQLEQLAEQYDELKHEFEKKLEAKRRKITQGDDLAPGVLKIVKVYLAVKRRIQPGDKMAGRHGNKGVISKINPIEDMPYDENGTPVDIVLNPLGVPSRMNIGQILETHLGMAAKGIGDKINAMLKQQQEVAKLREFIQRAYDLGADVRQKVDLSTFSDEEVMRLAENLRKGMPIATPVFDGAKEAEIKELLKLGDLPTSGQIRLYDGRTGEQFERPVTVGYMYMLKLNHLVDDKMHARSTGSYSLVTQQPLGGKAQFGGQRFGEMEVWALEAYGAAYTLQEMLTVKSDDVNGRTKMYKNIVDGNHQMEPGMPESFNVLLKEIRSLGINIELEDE", "sequence (P0A7Z4 whole entry, further chain)": "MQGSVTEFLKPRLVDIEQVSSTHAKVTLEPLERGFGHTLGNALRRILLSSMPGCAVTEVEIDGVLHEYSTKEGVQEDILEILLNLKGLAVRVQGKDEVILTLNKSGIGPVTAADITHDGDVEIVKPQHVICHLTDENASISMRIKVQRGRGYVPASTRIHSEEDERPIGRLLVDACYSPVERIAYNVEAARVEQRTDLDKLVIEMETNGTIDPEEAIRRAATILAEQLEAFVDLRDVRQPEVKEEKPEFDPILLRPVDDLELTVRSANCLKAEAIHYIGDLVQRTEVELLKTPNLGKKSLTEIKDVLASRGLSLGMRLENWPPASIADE", "assay": "Inhibition of RNA polymerase (antibiotic effect in vitro)", "type": "biochemical", "settings": "not yet reached at 100 µg/ml; read-out: EC₅₀ für die Inhibition der RNA-Polymerase", "from_the_text": "(§1) Die Ermittlung der antibiotischen Wirkung erfolgt z.B. einerseits in vitro durch die Bestimmung der mittleren effektiven Konzentration EC₅₀ für die Hemmung der RNA-Polymerase von Escherichia coli, sowie der minimalen Hemmkonzentration MIC (\"minimum inhibitory concentration\") im konventionellen Plattentest, andererseits in vivo an infizierten Mäusen und Ratten durch die Bestimmung von ED₅₀ (effektive Dosis, die für 50 % der Versuchstiere lebenserhaltend ist). Als Mikroorganismen werden für den vorliegenden Zweck insbesondere Mycobacterium tuberculosis TB H₃₇Rv und Staphylococcus aureus verwendet. Bei Verbindungen mit lipidsenkender Indikation wird eine antibiotische Wirksamkeit als nachteilig erachtet, da sie, insbesondere bei langfristiger Verabreichung, zur Bildung von gegen Antibiotika resistenten Stämmen von Mikroorganismen führen kann."}, "Staphylococcus aureus [3]": {"tested_on": "Staphylococcus aureus", "assay": "Minimum inhibitory concentration, conventional plate test", "type": "cell-based", "settings": "various pathogenic strains of Staphylococcus aureus", "from_the_text": "as §1"}, "Staphylococcus aureus [4]": {"tested_on": "Staphylococcus aureus", "assay": "Antibiotic effect in vivo in infected mice", "parameters": "species or system Mäuse", "settings": "mice infected with Staphylococcus aureus, single dose of 200 mg/kg", "from_the_text": "as §1"}}, "data": [{"compound": "COC1C=COC2(C)Oc3c(C)c(OC(=O)C(C)(C)C)c4c(c3C2=O)C(=O)C(N2CCN(Cc3c(C)cc(C)cc3C)CC2)=C(C4=O)N(C(=O)C(C)(C)C)C(=O)C(C)=CC=CC(C)C(O)C(C)C(O)C(C)C(OC(C)=O)C1C", "note": "(stereo not shown) [8-O,N-Dipivaloyl-3-[4-(2,4,6-trimethylbenzyl)-1-piperazinyl]-rifamycin S]", "values": [{"measurement": "Senkung der \"LDL-Fraktion\"", "setting": "[1]", "result": "50-70%"}, {"measurement": "EC50", "setting": "[2]", "result": "> 92.6", "unit": "µM"}, {"measurement": "MIC", "setting": "Staphylococcus aureus [3]", "result": "~64", "unit": "µg/mL"}, {"measurement": "antibiotische Wirksamkeit in vivo", "setting": "Staphylococcus aureus [4]", "result": "antibiotisch unwirksam"}]}]}
